# How the values were obtained:
# platelet aggregation [1] = assay: in vitro inhibitory activity of platelet aggregation (ADP-induced, platelet-rich plasma); assay type: cell-based, Japanese domestic white male rabbits; settings: Oryctolagus cuniculus; rabbit PRP, 10 µM ADP; minimum concentration which inhibited more than 50% of platelet aggregation; read-out: Inhibition of Platelet in vitro IC50
# Method: The in vitro platelet aggregation imhibiting activity of the compound of the invention was examined by using rabbits. Blood was withdrawn from the ear vein of Japanese domestic white male rabbits weighing 2.5 to 3.5 kg. A mixture of a 3.8% trisodium citrate solution and the blood in a ratio of 1:9 was centrifuged at a speed of 1000 rpm for 10 minutes. The upper layer was separated as platelet-rich plasma (PRP). The lower layer was further centrifuged at a speed of 2800 rpm for 10 minutes. The upper layer was separated as platelet- poor plasma (PPP). The number of plate lets was adjusted to 6 x 105/µℓ. to 7 x 105/µℓ. by diluting the PRP with PPP. 25 microliters of the test compound prepared as shown below was added with an amount of 25 to 250 microliters of PRP after the adjustment, and the mixture was pre-incubated at 37°C for 2 minutes, and then 10 µM (final) of ADP was added. Changes in transmission were recorded by using an aggregometer.
# The drug was dissolved in ethanol to a concentration of 10 mg/ml, and seccussively diluted with phosphate buffer (pH 7.4) prior to use.
# The rate of inhibition of platelet aggregation was determined from the following equation. [formula] • T0: the transmittance of the system containing the phosphate buffer, • T : the transmittance of the system to which the test drug was added. […]
# indomethacin ulcer = assay: inhibitory activity on indomethacin ulcer; assay type: in vivo, Wister male rats; settings: rat indomethacin ulcer, oral administration of 40 µg/kg
# Method: The inhibiting effect on ulcer formation induced by indomethacin was examined by using Wister male rats (7 weeks old, body weight 220 g) which were fasted for 24 hours, except for water, and then subjected to experiment.
# The sample compound to be tested was dissolved in a phosphoric acid buffer (pH 7.4) containing 0.9% NaCl and the solution was orally administered to the rats. 30 minutes after the administration, indomethacin was orally administered to the rats at a dose of 20 mg/kg. 5 hours after the administratin of the indomethacin, the rats were killed and the ulcer formation in the stomach was examined by determining the length of the ulcer formation portion under a stereomicroscope. From this measurement, the inhibition of ulcer formation by the sampel compound was calculated to determine the IC50 values.
# ethanol ulcer = assay: inhibitory activity on ethanol ulcer; assay type: in vivo, SD-strain rats; settings: rat ethanol ulcer, oral administration of 4 ug/kg
# Method: An ethanol ulcer test was carried out by the following procedure. SD-strain rats (body weight 200 to 220 g; 7 week old) were fasted for 24 hours, and a solution of the test compound in physiological saline buffered with phosphate buffer at pH 7.5 was orally administered. Thirty minutes after the administration, 75% ethanol was orally administered in a dose of 1 ml/kg. One hour later, the abdomen was incised to isolate the stomach. […] The total of these lengths was […] ulcer index. From this measurement, the inhibition of ulcer formatin by the test compound was calculated, to determine the IC50 value.
# blood pressure = assay: activity on blood pressure, intravenous injection under anesthesia; assay type: in vivo, male wister rats; settings: Rattus norvegicus, i.v., dosage which caused a 20% lowering of the mean blood pressure, anesthetized rats
# Method: The actions of the 5-thiaprostaglandin of the invention on the blood pressure was examined by intravenous injection under anesthesia.
# Urehtane (500 mg/kg) and a-chloralose (100 mg/kg) were intraperitoneally administered to male wister rats weighing about 250 g. The rats were anesthetized and fixed in place.
# The test compound was dissolved in a small amount of ethanol and diluted with physiological saline to adjust the final ethanol concentration to not more than 5%. The solution was intravenously injected into the rats through a catheter inserted into the femoral vein.
# The blood pressure of the rats was measured by a pressure transducer through a catheter inserted into the carotid artery of the rats.
# The action of the test compound on the blood pressure was expressed as the dosage (ED20 , ug/kg) of the test compound which caused a 20% lowering of the mean blood pressure before administration of the compound.
# platelet aggregation [2] = assay: extra vivo inhibitory activity of platelet aggregation after oral administration; assay type: in vivo, Hartley-strain guinea pigs; settings: guinea pigs, oral 0.3-3 mg/kg, blood drawn 1 hour after administration, N.E.: no-effect
# Method: The extra vivo platelet aggregation inhibitory activity of the 5-thiaprostaglandin E1 derivatives of the invention were measured by using guinea pigs. A test drug prepared as a 10% ethanol solution of the compound of the invention in ethanol diluted with 10% ethanol-0.5% Tween 80 in saline were orally administered in a dose of 0.3-3 mg/kg, and as a control 10% ethanol-0.5% Tween 80 in saline was orally administered in a dose of 1 ml/kg to Hartley-strain guinea pigs having a body weight of 350 to 450 g which had been fasted for 17 hours. 1 hour after the administration of the compound, blood was drawn off by carbiac puncture using trisodium citrate so that the ratio of the blood to 3.8% trisodium citrate was 9:1. The blood was centrifuged at a speed of 700 rpm for 10 minutes. The upper layer was separated as platelet-rich plasma (PRP). The lower layer was further centrifuged at a speed of 2800 rpm for 10 minutes. The upper layer was separated as platelet poor plasma (PPP). A 250 microliter amount of the - resulting PRP was taken into an aggregometer cuvette and incubated at 37°C for 2 minutes. […] The aggregation curve was recorded for 5 minutes. The maximum degree of aggregation of platelets within this time period was read, and the rate of inhibition of platelet aggregation was calculated from the following equation. […]
compound,measurement,setting,value
"CCCC[C@](C)(O)C/C=C/[C@H]1[C@H](O)CC(=O)[C@@H]1CCSCCCC(=O)OC [Compound of example 6, (16S)-15-deoxy-16-hydroxy-16-methyl-5-thiaprostaglandin E1 methyl ester]",IC50,platelet aggregation [1],60 µg/mL
same,preventive rate of ulcer generation,indomethacin ulcer,about 50%
same,prevention rate of ulcer generation,ethanol ulcer,about 50%
same,ED20,blood pressure,2.1 µg/kg
same,Inhibition of Platelet extra vivo ADP,platelet aggregation [2]; ADP-induced aggregation,N.E.
same,Inhibition of Platelet extra vivo collagen,platelet aggregation [2]; collagen-induced aggregation,N.E.
